From patent US20170368082A1, “FORMULATIONS OF BRINCIDOFOVIR” (priority 2016, published 2017)

Test: PBMC PK of CDV-PP following IV and oral suspension BCV
Type: in vivo, human
Details: PBMC CDV-PP
Method: Two single dose BCV studies in healthy subjects contributed data for this analysis. The first study was a 2-period crossover bioequivalence study that enrolled 24 subjects who received two formulations of BCV oral suspension 100 mg fasted, one in each period. Data from 12 subjects who had PBMCs collected in Period 1 were included in this analysis; these subjects were 100% female, 31-59 years, and 58-88 kg. The second study, outlined above, enrolled 40 subjects who received IV BCV or placebo. Data from 18 subjects who received BCV 50 mg as either a 2-h or 4-h IV infusion were included in this analysis; these subjects were 100% male, 18-46 years, 64-106 kg. Serial PBMC samples were collected over 14 days and assayed by HPLC-MS-MS. PBMC CDV-PP PK parameters were determined by non-compartmental analysis.

[1] = BCV 50 mg IV 2 h Infusion, n = 9
[2] = BCV 50 mg IV 4 h Infusion, n = 9
[3] = BCV 100 mg Oral suspension, n = 12

cidofovir diphosphate [CDV-PP] gave an AUClast [1] of 1409 pg · h/10^6 cells, a Cmax [1] of 14.3 pg/10^6 cells and an AUClast [2] of 963 pg · h/10^6 cells. It also gave a Cmax [2] of 8.41 pg/10^6 cells, an AUClast [3] of 1107 pg · h/10^6 cells and a Cmax [3] of 7.68 pg/10^6 cells.
